The source of these data is patent US10709724B2, “Methods of treating mitochondrial dysfunction” (Ecole Polytechnique Federale de Lausanne (EPFL), priority 2011, dated 2020).

One assay deals with C2C12 myotubes. Put plainly: Mitochondrial gene expression, mtDNA and membrane potential in C2C12 myotubes. It counts as cell-based. The procedure: Cell Culture, Transfection, Adenoviral Infection and Mitochondrial Characterization. HEK293T, MEF and C2C12 cells were cultured in DMEM (4.5 g/l glucose, 10% FCS). PARP-1^+/+ and PARP-1^−/− MEFs were prepared as described in (Menissier-de Murcia et al., 1997). SIRT1 and MEFs were kindly provided by Fred Alt (Chea et al., 2005). SIRT3 MER were established according to standard techniques from conditional SERT3^−/− mice. (Picard, F., Gehin, M., Annicotte, J., Rocchi, S., Champy, M. F., O'Malley, B. W., Chambon, P., and Auwerx, J. (2002). SRC-1 and TIF2 control energy balance between white and brown adipose tissues. Cell 111, 931-941.) Deletion of the SIRT3 gene was induced via infection with adenovirus encoding for the Cre recombinase. HEK293T cells were transfected using JetPei reagent (Polyplus Transfections, Illkirch, France) according to the manufacturer's instructions. C2C12 cells were differentiated in DMEM (4.5 g/L glucose, 2% horse serum) after reaching confluency for 2 days, followed by 2 days of PJ34 treatment (10 μM). PARP-1 shRNA constructs were described in (Shah et al., 2005). Human PARP-1 and siRNAs were obtained from Dharmacon (Thermo Scientific). The adenovirus encoding for FLAG-HA-PGC-1α, control and SIRT1 shRNAs were a kind gift from Pere Puigserver and were used (MOI=100) in C2C12 myotubes as described (Canto et al., 2009). Mitochondrial charge determination was performed as described (Bai et al., 2001) and DNA strand breaks were quantified by TUNEL assays according to the manufacturer's instructions (Millipore).
mRNA and mtDNA Analysis. Total RNA was prepared using TRIzol (Invitrogen) according to the manufacturer's instructions. RNA was treated with DNase, and 2 μg of RNA was used for reverse transcription (RT). cDNA was purified on QIAquick PCR cleanup columns (Qiagen, Valencia, Calif., USA). 50× diluted cDNA was used for RT-quantitative PCR (RT-VCR) VCR) reactions (Bai et al., 2007). The RT-qPCR reactions were performed using the Light-Cycler system (Roche Applied Science) and a qPCR Supermix (Qiagen) with the primers for mice summarized in Table 1 and 4, and with the primers for worms summarized on Table 7. mtDNA quantification was performed as described (Lagouge et al., 2006) with the primers indicated in Table 2 and 5.
Mitochondrial DNA Measurement The assay was performed as described (Lagouge et al., 2006). DNA. was extracted using the standard proteinase K digestion following phenol-chloroform extraction. Mitochondrial and genomic DNA was determined using specific primers in qPCR reactions (primers summarized in Table 2 and 5.) and was expressed as percentage of WT.

In the next assay the test system is SIRT3. The experiment in a line: SIRT3 activity (Ndufa9, SOD2 acetylation) in NR-treated HEK293T cells. Type of assay: cell-based, human. As to conditions: 0.5 mM, 24 hrs. The procedure:
Immunoprecipitation, SDS-PAGE, Western Blotting. Cells were lysed in lysis buffer (50 mM Tris, […], EDTA 1 mM, NP40 1%, nicotinamide 5 mM, Na-butyrate 1 in M, protease inhibitors pH7.4). Proteins were separated by SDS-PAGE and transferred onto nitrocellulose membranes. The origin of the primary and secondary antibodies used can be found as supplemental experimental procedures. Reactions were developed by enhanced chemiluminescence (Amersham, Little Chalfont, UK), PGC-1α, FOXO1 and Ndufa9 acetylation levels were analyzed by immunoprecipitation from cellular or nuclear lysates of tissues with anti-PGC-1α (Millipore), anti-FOXO1 (Cell Signaling, Danvers, Mass., USA) and anti-Ndufa9 (Abcam) antibody followed by Western blot using an acetyl-lysine antibody (Cell Signaling) that was normalized to total PGC-1a/FOXO1/Ndufa9 levels (Lagouge et al., 2006; Rodgers et al., 2005). In HEK293T cells HA-tagged PGC-1α was overexpressed and was immunoprecipitated using an anti-HA. In C2C12 myotubes, FLAG-HA tagged PGC-1α was introduced through adenoviral delivery 2 days before treatments, then IP was performed using anti-FLAG antibody and samples were processed as described. All blots were quantified by densitometry using ImageJ software. Poly(ADP-Ribose) detection was performed as previously described with slight modifications (Bai et al., PARP-1 inhibition increases mitochondrial metabolism through SIRT1 activation. Cell Metab 13, 461-468. (2011)) Briefly, PAR was detected by using a monoclonal anti-PAR antibody (Alexis, Lausanne Switzerland) by Western blotting of total protein lysates, using either […] of total worm protein lysates, […] of liver protein lysate or 200 g of muscle total protein extracts. PGC-1 acetylation was determined using PGC-1 immunoprecipitates from 2 mg of protein extracts, as described in Canto et al. (Canto et al., AMPK regulates energy expenditure by modulating NAD+ metabolism and SIRT1 activity. Nature 458, 1056 (2009)). […]

For `CN(C)CC(=O)Nc1ccc2[nH]c(=O)c3ccccc3c2c1` [PJ34], in the assay on C2C12 myotubes (1 μM, 48 h), the “mitochondrial DNA content” value is reported as “higher mitochondrial DNA content” and the mitochondrial membrane potential result is listed as “higher mitochondrial potential”. In addition, in the assay on C2C12 myotubes (48 hrs), the “expression of mitochondrial genes (Ndufa2, Ndufa3, MCAD, PDK4, UCP3)” value is “increased expression of several mitochondrial genes”. Moreover, in the assay with C2C12 myotubes (SIRT1 shRNA), the “UCP3 mRNA expression with SIRT1 knock-down” value is listed as “persistent increase in UCP3 mRNA expression” and the “mitochondrial gene expression with SIRT1 knock-down” value is reported as “largely blunted”.
Turning to `NC(=O)c1ccc[n+]([C@@H]2O[C@H](CO)[C@@H](O)[C@H]2O)c1` [NR, nicotinamide riboside], in the assay with SIRT3, the SOD2 activity result was “enhanced SOD2 activity”, the “acetylation status of Ndufa9” value was “reduced the acetylation status” and the “acetylation status of SOD2” value was “reduced the acetylation status”.
